Key:
[1] = biological target: STAT3 (Homo sapiens, UniProt P40763); test: Inhibition of STAT3 phosphorylation in BT20 breast tumor cells (western blot); type: cell-based; parameters: endogenous in cells; host or cells: BT20 breast tumor cells
Experimental: Inhibition of STAT3 in BT20 Breast Tumor Cells. General procedure: 35 mm petri dishes were plated with 300,000 BT20 cells in 2 mL RPMI1640 media containing 10% FBS, […], streptomycin, and glutamine. Prodrugs were dissolved in DMSO and were added to the cells with fresh media at varying concentrations. After 2 h the cells were washed with ice cold phosphate buffered saline. Washed cells were treated with lysis buffer (50 mM Hepes, pH 7.4, 150 mM NaCl, 1.5 mM MgCl2, 1 mM EGTA, 100 mM NaF, 10 mM sodium pyrophosphate, 10% glycerol, 1% Triton X-100, 1 mM PMSF, 1 mM Na3VO4, 10 μg/mL leupeptin and 10 μg/mL aprotinin). Cell-free detergent extracts were centrifuged at 15,000 rpm in a microcentriguge for 30 min at 4° C. and the protein concentrations of the supernatants determined. Aliquots containing 12 μg of protein were separated on 8% SDS-PAGE and were transferred to PVDF filters. The filters were blocked with 5% bovine serum albumin and were probed with pStat3^Y705 antibody followed by secondary antibody, whose signal was detected with an enhanced chemiluminescence kit (ECL, Amersham, Chicago, Ill.). Filters were stripped with stripping buffer (62.5 mM Tris, pH 6.8, 2% SDS, and 0.1 M 2-mercaptoethanol) at 50° C. for 30 min. Filters were then probed with total Stat3 antibody and visualized with chemiluminescence as above.
Because DMSO is toxic, other formulations were evaluated for potential use in animal models. The compound of Example 1 was dissolved in EtOH, 20% (w/v) Trappsol (hydroxypropyl β-cyclodextran, pharmaceutical grade), or a liposomal formulation to a concentration of 5 mM. These formulations were given to cells at 0.1, 0.5, and 5 μM concentrations. At two hours, cells were lysed and pSTAT3 levels were determined by Western Blot (FIG. 3). Different formulations have little effect on inhibition of STAT3. The compound of Example 1 was dissolved in DMSO, EtOH, Trappsol, or as a 10 mol % mixture in dimyristoylphosphatidyl choline and applied to BT20 cell in culture. After two hours, cells were lysed and pSTAT3 levels determined by Western blot. To prepare liposomes a solution of 1.0 mg of the compound of Example 1, 7.2 mg of DMPC, 0.41 mg of Tween 20 in 1.0 mL of tert-butanol was lyophilized. A control lipid formulation of 7.2 mg of DMPC and 0.41 mg of Tween 20 in 1.0 mL of tert-butanol was lyophilized. These samples were mixed with 236 μL of H2O and were vortexed and sonicated for 5 min.
(§1) The compounds are selective for STAT3 over STAT1 in BT20 breast tumor cells. BT20 cells prepared as above and were treated with 5 μM of the compound of Example 1 for two hours then were treated with 25 ng/mL of interferon γ (IFNγ). […] (FIG. 4, bottom panel).
Time course of inhibition of STAT3 phosphorylation in BT20 cells. BT20 cells were plated as above and treated with the compounds from Examples 1 and 6 and western blots were performed at varying time intervals.

[2] = biological target: T1, STAT1 (Homo sapiens, UniProt P42224); test: IFNγ-stimulated phosphoStat1 in BT20 cells; type: cell-based; parameters: endogenous in cells; host or cells: BT20 breast tumor cells; conditions: 5 μM, 2 h, then IFNγ 25 ng/mL, 20 and 45 min
T1 sequence (P42224 1-750): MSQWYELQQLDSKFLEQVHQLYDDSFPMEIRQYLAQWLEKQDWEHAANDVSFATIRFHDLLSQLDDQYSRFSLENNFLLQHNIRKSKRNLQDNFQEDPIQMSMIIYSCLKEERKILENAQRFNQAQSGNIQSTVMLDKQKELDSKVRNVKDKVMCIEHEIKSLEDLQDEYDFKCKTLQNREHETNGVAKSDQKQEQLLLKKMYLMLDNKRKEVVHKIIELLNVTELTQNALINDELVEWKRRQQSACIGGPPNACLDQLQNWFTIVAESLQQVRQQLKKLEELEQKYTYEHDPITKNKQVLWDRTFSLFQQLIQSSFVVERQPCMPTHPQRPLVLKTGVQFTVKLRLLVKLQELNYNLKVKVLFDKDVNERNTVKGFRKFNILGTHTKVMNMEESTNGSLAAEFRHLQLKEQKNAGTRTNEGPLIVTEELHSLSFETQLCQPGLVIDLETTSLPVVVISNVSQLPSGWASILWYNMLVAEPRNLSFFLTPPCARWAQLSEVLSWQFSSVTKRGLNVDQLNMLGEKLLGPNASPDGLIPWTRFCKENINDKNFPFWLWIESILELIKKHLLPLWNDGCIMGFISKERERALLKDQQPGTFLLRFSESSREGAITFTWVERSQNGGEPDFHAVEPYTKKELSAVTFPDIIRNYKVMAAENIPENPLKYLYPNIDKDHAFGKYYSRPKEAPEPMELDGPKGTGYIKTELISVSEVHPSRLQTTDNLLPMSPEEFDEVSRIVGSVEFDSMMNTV
Experimental: as §1

[3] = test system: SUM149 and MDA-MB-231 cells; test: In vitro invasion of an artificial basement membrane; type: cell-based, human; conditions: 72 hours
Experimental: Effect of prodrugs on in vitro invasion of an artificial basement membrane by human breast cancer cells. SUM149 and MDA-MB-231 cells were trypsinized, resuspended in serum-supplemented medium, and counted. Cells were then washed 3 times with serum-free medium. Plates (6-well) compatible with transwell inserts with 8 μm pore-size polycarbonate filters (Fisher Scientific) were coated with Matrigel in cold serum-free DMEM/F12 at a final concentration of 0.7 mg/mL and held at room temperature for 40 minutes. Cells (in 500 μL serum-free medium) were added into the transwell inserts and incubated for 72 hours in the absence or presence 5 μM prodrug in DMSO (1% by volume). For a control, 10% FBS was used to evaluate the baseline extent of invasion of the different cell lines. After incubation, noninvading cells on the upper surface of the filter were removed with cotton swabs. Cells that had passed through the pores onto the lower side of the filter were fixed, stained with Hema-3 stain (Fisher Scientific), and quantified. The experiments were performed in triplicate and were repeated twice.

Chain of STAT3 (P40763 whole entry): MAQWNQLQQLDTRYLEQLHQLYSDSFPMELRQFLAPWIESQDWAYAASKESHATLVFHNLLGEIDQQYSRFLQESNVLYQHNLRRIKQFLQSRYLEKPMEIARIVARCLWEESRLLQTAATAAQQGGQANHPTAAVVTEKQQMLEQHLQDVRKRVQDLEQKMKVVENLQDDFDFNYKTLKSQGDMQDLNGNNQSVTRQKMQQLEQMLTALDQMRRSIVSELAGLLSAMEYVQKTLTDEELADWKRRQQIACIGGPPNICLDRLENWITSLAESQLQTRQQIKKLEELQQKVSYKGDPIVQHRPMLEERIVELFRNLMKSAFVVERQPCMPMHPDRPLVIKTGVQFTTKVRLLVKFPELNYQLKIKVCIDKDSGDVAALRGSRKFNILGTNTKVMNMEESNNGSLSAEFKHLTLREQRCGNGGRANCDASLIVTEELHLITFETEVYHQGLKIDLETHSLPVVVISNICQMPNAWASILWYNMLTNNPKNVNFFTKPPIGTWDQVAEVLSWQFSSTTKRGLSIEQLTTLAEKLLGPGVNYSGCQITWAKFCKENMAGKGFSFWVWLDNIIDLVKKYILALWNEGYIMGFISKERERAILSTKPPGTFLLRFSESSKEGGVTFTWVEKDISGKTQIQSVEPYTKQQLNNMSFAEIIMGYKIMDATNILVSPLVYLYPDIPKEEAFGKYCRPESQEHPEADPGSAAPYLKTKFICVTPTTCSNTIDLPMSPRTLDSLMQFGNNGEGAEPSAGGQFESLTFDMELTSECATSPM

phosphorylation of STAT3 at the indicated time points ([1]; 5 μM, BT-20 cells): inhibit the phosphorylation of STAT3
selectivity for STAT3 over STAT1 and AKT ([1]; BT20 cells): selective for STAT3 over STAT1 and AKT
pSTAT3 inhibition compared with DMSO sample ([1]; dissolved in EtOH, 0.5 and 5 μM, 2 h, BT20): comparable
pSTAT3 inhibition compared with DMSO sample ([1]; in 20% Trappsol HPB, 0.5 and 5 μM, 2 h, BT20): comparable
pSTAT3 inhibition compared with DMSO sample ([1]; liposomal preparation (DMPC/Tween 20), 2 h, BT20): inhibition comparable to DMSO
IFNγ-stimulated increase in phosphoStat1 [2]: did not inhibit
Structure (SMILES): C/C(=C\C(=O)N[C@H]1CCc2cccc3c2N(C1=O)[C@H](C(=O)N[C@H](C)CCC(N)=O)C3)c1ccc(C(F)(F)P(=O)(OCOC(=O)C(C)(C)C)OCOC(=O)C(C)(C)C)cc1 [Example 1, (2E)-3-[4-[[bis[(2,2-dimethyl-1-oxopropoxy)methoxy]phosphinyl]difluoromethyl]phenyl]-but-2-enoyl-Haic-(R)-4-aminopentamide]
increase in pSTAT3 formation on EGF stimulation ([1]; 5 μM, 2 h, then EGF 50 ng/mL, BT20): inhibited the increase in pSTAT3 formation
pSTAT3 inhibition compared with DMSO sample ([1]; dissolved in EtOH, 0.1 μM, 2 h, BT20): did not inhibit as much as did the DMSO sample
pSTAT3 inhibition compared with DMSO sample ([1]; in 20% Trappsol HPB, 0.1 μM, 2 h, BT20): did not inhibit as much as did the DMSO sample
invasion through the artificial basement membrane ([3]; 5 μM in DMSO): inhibited invasion
effectiveness in invasion assay relative to Example 8 ([3]; 5 μM): more effective
